Where “and” joins values, the source holds several entries; their conditions need not be identical. Equal values may be shown once. Read-outs that look alike come from different tables or passages of the source.
Assays:
Nostoc calcicola = conditions: cited from earlier work
Chlorella sorokiniana [1] = test: Malathion twelve day growth study: chlorophyll a and chl a/b ratio; type: cell-based, Chlorella sorokiniana (UTEX 2805)
Method: (§1) • Analysis of growth parameters: Chlorophyll a was estimated following the method of Porra et al., (1989) Biochem. Biophys. Acta 975, 384-394. Biomass estimations were performed by filtering the cultures through pre-dried and weighed Whatman GF/C glass fiber filters (4.7 cm diameter; 1.2 μm pore size). After washing with 0.65 M ammonium formate, filters were then dried at 60° C. overnight and cooled in a desiccant pouch before re-weighing. Specific growth rates, divisions per day, and generation times were estimated based upon biomass data for days 6 to 9 and days 9 to 12 using the following equations:
(§2) • Test strain: Chlorella sorokiniana (UTEX 2805) was obtained from UTEX Culture Collections and maintained in BG11 medium (Stanier et al., (1971) Bacteria Rev. 35: 171-205, incorporated herein in its entirety). The pH of culture medium was adjusted to 7.5±0.2 before inoculation and the alga was maintained in a temperature controlled growth chamber at 25±1° C. and 100±10 μmol m^−2 s^−1 light intensity with 12/12 h L/D cycle provided by cool white fluorescent (6500 K) T-8 bulbs. • Pesticide: A twelve day time-scale growth study was conducted to evaluate the effect of pesticide toxicity on algal growth and metabolism. The pesticide malathion (Spectracide, 50% v/v) was used and added to fresh BG11 medium to obtain final concentrations of 70, 140, 280 and 560 mg of malathion L^−1 for the treatments. […] After sterilization, C. sorokiniana was added as inoculum to obtain an initial biomass concentration of 0.075 g L^−1 in all the treatments in triplicates. The cultures were incubated in the growth chamber as explained above. For each sampling period, three randomly chosen flasks of each treatment were removed and then refrigerated at 4° C. until further analysis.

algae = conditions: applied alone at half solubility in water (75 mg L^−1); cited from earlier work
Anabaena = conditions: cited from earlier work; for inhibition: 500 mg malathion L^−1
[2] = system: Stigeoclonium, Tribonema, and Vaucheria; conditions: 1 μg L^−1; cited from earlier work
Chlorella sorokiniana [3] = test: Malathion growth study: neutral lipid content; type: cell-based, Chlorella sorokiniana (UTEX 2805); conditions: for increase in lipid production over the control: day 6
Method: • Biomass Composition: Neutral lipids were estimated using an Ankom XT10 automated extractor (Chinnasamy et al., (2010) Bioresource Technol. 101: 3097-3105). Lipid content was measured gravimetrically using hexane as solvent. The same filters used for the biomass measurements (from 25 mL of culture) were used for the lipid estimation as they provided the initial weight of biomass (W1). The filters were then placed into Ankom XT4 extraction bags, sealed with the impulse sealer and then autoclaved at 121° C. for 15 min. After drying, the extraction bags were placed in a resealable plastic bag with desiccant material while each individual bag was removed and carefully weighed (W2). Extraction bags were then placed into the Ankom extractor and extraction was performed for 2 h at 105° C. with hexane as solvent. Bags were then transferred to a forced-air oven and dried at 60° C. overnight, then cooled in a dessicator and weighed (W3). The following equation was used to calculate the lipid content of algal samples:
as §2

Chlorella sorokiniana [4] = test: Malathion twelve day growth study: biomass and growth rates; type: cell-based, Chlorella sorokiniana (UTEX 2805)
Method: as §1
Specific growth rate (μ, d^−1)=ln(N2/N1)/(t2−t1)
Divisions per day (Div.day^−1)=μ/ln2
Generation time (d)=1/Div.day^−1
Where N1 and N2=biomass at time 1 (t1) and time 2 (t2), respectively.
as §2

Chlorella pyrenoidosa = conditions: 100 mg of malathion L^−1; cited from earlier work
[5] = T1, 70 mg malathion L^−1, day 6 to 9
[6] = T1, 70 mg malathion L^−1, day 9 to 12
[7] = T2, 140 mg malathion L^−1, day 6 to 9
[8] = T2, 140 mg malathion L^−1, day 9 to 12

## CCOC(=O)CC(SP(=S)(OC)OC)C(=O)OCC (stereo not shown) [malathion, 2-(dimethoxyphosphinothioylthio)butanedioic acid diethyl ester]
Nostoc calcicola
  concentration above which growth was reduced: above 500 mg L^−1
Chlorella sorokiniana [1]; 70 mg malathion L^−1, day 0
  ratio of chl a to chl b: approximately 0.85
Chlorella sorokiniana [1]; 70 mg malathion L^−1, day 3
  inhibition in chl a: 45%
Chlorella sorokiniana [1]; 70 mg malathion L^−1, day 6
  inhibition in chl a: 49%
Chlorella sorokiniana [1]; 70 mg malathion L^−1, day 9
  inhibition in chl a: 51%
Chlorella sorokiniana [1]; 70 mg malathion L^−1, day 12
  inhibition in chl a: 26%
  ratio of chl a to chl b: approximately 0.90
Chlorella sorokiniana [1]; 140 mg malathion L^−1, day 0
  ratio of chl a to chl b: approximately 0.85
Chlorella sorokiniana [1]; 140 mg malathion L^−1, day 12
  ratio of chl a to chl b: approximately 0.90
Chlorella sorokiniana [1]; 280 mg malathion L^−1
  decrease of chl a/b ratio: approximately 100%
algae
  toxicity to algae, in words: toxic to algae
Anabaena; 500 mg L^−1
  resistance to malathion, in words: highly resistant
Anabaena; day 5
  inhibition: 64%
Anabaena; day 30
  inhibition: 15%
[2]
  inhibition of chlorophyll production: 100%
Chlorella sorokiniana [3]; 70 mg malathion L^−1
  increase in lipid production over the control: 70%
Chlorella sorokiniana [3]; 70 mg malathion L^−1, day 9
  increase in lipid over control: 42%
Chlorella sorokiniana [3]; 140 mg malathion L^−1
  increase in lipid production over the control: 110%
Chlorella sorokiniana [3]; 140 mg malathion L^−1, day 9
  increase in lipid over control: 119%
Chlorella sorokiniana [3]; 140 mg malathion L^−1, day 12
  increase in lipid content over control: 25%
Chlorella sorokiniana [3]; 280 mg malathion L^−1
  increase in lipid production over the control: 325%
Chlorella sorokiniana [3]; 280 mg malathion L^−1, day 9
  increase in lipid over control: 212%
Chlorella sorokiniana [3]; T1, 70 mg malathion L^−1, day 9, control 97%
  increase in lipid content of the cells with respect to day 3: 193%
Chlorella sorokiniana [3]; T1, 70 mg malathion L^−1, day 12, control 287%
  increase in lipid content of the cells with respect to day 3: 406%
Chlorella sorokiniana [3]; T2, 140 mg malathion L^−1, day 9, control 97%
  increase in lipid content of the cells with respect to day 3: 150%
Chlorella sorokiniana [3]; T2, 140 mg malathion L^−1, day 12, control 287%
  increase in lipid content of the cells with respect to day 3: 574%
Chlorella sorokiniana [3]; concentrations ranging from 70-280 mg L^−1 in the growth medium
  increase in lipid production: 70-325%
Chlorella sorokiniana [4]
  malathion concentration the alga can withstand / tolerated: up to 140 mg L^−1
Chlorella sorokiniana [4]; 70 mg malathion L^−1
  time within which the alga could metabolize the pesticide and overcome the stress: ≤ 6 days
Chlorella sorokiniana [4]; 70 mg malathion L^−1, day 3
  inhibition in biomass: 25%
Chlorella sorokiniana [4]; 70 mg malathion L^−1, day 6
  inhibition in biomass: 37%
Chlorella sorokiniana [4]; 70 mg malathion L^−1, day 9
  inhibition in biomass: 35%
Chlorella sorokiniana [4]; 70 mg malathion L^−1, day 12
  inhibition in biomass: 18%
Chlorella sorokiniana [4]; 140 mg malathion L^−1
  time within which the alga could metabolize the pesticide and overcome the stress: ≤ 9 days
Chlorella sorokiniana [4]; 140 mg malathion L^−1, day 3
  inhibition of biomass: 35%
Chlorella sorokiniana [4]; 140 mg malathion L^−1, day 6
  inhibition of biomass: 60%
Chlorella sorokiniana [4]; 140 mg malathion L^−1, day 9
  inhibition of biomass: 68%
Chlorella sorokiniana [4]; 140 mg malathion L^−1, day 12
  inhibition of biomass: 49%
Chlorella sorokiniana [4]; 270 mg malathion L^−1
  effect on growth of the alga, in words: lethal
Chlorella sorokiniana [4]; 280 mg malathion L^−1 (T3)
  effect on growth of the alga, in words: lethal
Chlorella sorokiniana [4]; 280 mg malathion L^−1, day 3
  inhibition of biomass: 48%
Chlorella sorokiniana [4]; 280 mg malathion L^−1, day 6
  inhibition of biomass: 78%
Chlorella sorokiniana [4]; 280 mg malathion L^−1, day 9
  inhibition of biomass: 89%
Chlorella sorokiniana [4]; 280 mg malathion L^−1, day 12
  inhibition of biomass: 100%
Chlorella sorokiniana [4]; 540 mg malathion L^−1
  effect on growth of the alga, in words: lethal
Chlorella sorokiniana [4]; 560 mg malathion L^−1 (T4)
  effect on growth of the alga, in words: lethal effects
Chlorella sorokiniana [4]; [5]
  Divisions per day: 0.23
  Generation time: 4.4 days
  Increase in biomass production: 1.61 times
  Specific growth rate (μ): 0.16 day⁻¹
  Δ Biomass: 0.103 g/L
Chlorella sorokiniana [4]; [6]
  Divisions per day: 0.27
  Generation time: 3.7 days
  Increase in biomass production: 1.8 times and 1.76 times
  Specific growth rate (μ): 0.19 day⁻¹
  Δ Biomass: 0.206 g/L
Chlorella sorokiniana [4]; [7]
  Divisions per day: 0.12
  Generation time: 8.7 days
  Increase in biomass production: 1.27 times
  Specific growth rate (μ): 0.08 day⁻¹
  Δ Biomass: 0.029 g/L
Chlorella sorokiniana [4]; [8]
  Divisions per day: 0.38
  Generation time: 2.6 days
  Increase in biomass production: 2.2 times and 2.20 times
  Specific growth rate (μ): 0.26 day⁻¹
  Δ Biomass: 0.163 g/L
Chlorella pyrenoidosa
  effect on growth, in words: very little effect on the growth

— patent publication US20110091945A1, “METHODS OF INCREASING BIOMASS PRODUCTIVITY, LIPID INDUCTION, AND CONTROLLING METABOLITES IN ALGAE FOR PRODUCTION OF BIOFUELS USING BIOCHEMICAL STIMULANTS” (priority 2009, published 2011)
